Assay [1] relates to cortico-striatal synapse LTD (striatal projection neurons). The assay is described as follows: Long-term depression at the cortico-striatal synapse, whole-cell electrophysiology in acute brain slices. Type of assay: cell-based, mouse. How it is done: To directly test these predictions, whole-cell electrophysiology of striatal projection neurons was performed in acute brain slices to induce long-term depression in the presence of eIF2-alpha pathway-modulating drugs. Acute horizontal brain slices from the progeny of heterozygous ΔE Torsin1a knockin×homozygous Drd1a-tdTomato mice (age P15-21) were prepared largely as described in (Trusel et al., 2015, Cell Rep. 13, 1353-65). LTD was induced as in Trusel et al., 2015, with modifications.
Heterozygous delGAG Torsin1a knockin mice (courtesy of Dr. W. Dauer, University of Michigan) were crossed with homozygous Drd1a-tdTomato mice (Jackson Labs) and the progeny was used at postnatal day 15-21 for experiments. […]
Single slices were transferred to a recording chamber and superfused continuously with ACSF containing 50 μM picrotoxin at 32° C. and 3-4 mL/min. […] Evoked excitatory postsynaptic potentials (EPSPs) were recorded in the dorsolateral striatum, while stimulating every 30 seconds with a concentric bipolar electrode (FHC) in cortical layer V (see Trusel et al., Cell Reports, 2015). […] Baseline EPSPs were recorded for at least 10 min or until a stable baseline was reached. Data were acquired by pClamp v10 and analyzed using Clampfit v10.4, Origin v8.0, and GraphPad Prism v6.

Assay [2] relates to WT Torsin1a localization in Flp-In T-REx 293 cells expressing EGFP-WT Torsin1a. The assay is described as follows: Torsin1a localization assay in WT Torsin1a-expressing assay cell line. The assay is classed as cell-based, human. Particulars: WT Torsin1a-expressing cell line, dose response. From the text: To develop an assay capable of detecting conditions that correct a dystonia cellular phenotype, two human cell lines were generated that stably expressed EGFP-tagged human wild-type Torsin 1A, or delta-E Torsin1a, from a single cDNA copy integrated at a defined genomic site (FIG. 1, panel 1).
To limit variation in expression levels associated with random integration or transient expression, single copies of either WT or delta-E human TOR1A cDNAs with N-terminal EGFP fusions were inserted at the FRT site in Flp-In™ T-Rex™ 293 cells (Thermo Fisher Scientific #R780-07) via flippase recombinase-mediated cassette exchange according to the manufacturer's recommended protocols. This system includes an inducible expression feature (TetON) that avoids selective pressure for potential toxic effects of chronic expression of mutant proteins (FIG. 1, panel 1). […]
This approach provides control over expression levels, avoiding the wide variation typically seen with random genomic integration or transient expression approaches. […] The mutant phenotype was measured as the percentage of cells with one or more EGFP puncta using automated high-content imaging analysis (see infra).
Development and validation of the high-content image analysis and assay performance under high-throughput screening conditions is presented in FIG. 9. […] Automated exposure times for each plate were determined by setting a target saturation of 25% in channel 1 in wells containing tetracycline-induced delta-E cells. Detected cells were gated according to nuclear area, length-to-width ratio, and perimeter-to-area ratio. […] EGFP fluorescence (Ch2: excitation 488 nm; emission 509 nm) was used for puncta detection. Automated exposure times for each plate were determined by setting a target saturation of 35% in channel 2 in wells containing induced delta-E cells. […]

`O=C(COc1ccc(Cl)cc1)NC1CCC(NC(=O)COc2ccc(Cl)cc2)CC1` (stereo not drawn) [ISRIB]: the “LTD in WT brain slices” value in assay [1] (pre-incubation 5 nM, WT mice) is “robustly inhibited LTD”. Besides, the “effect on WT Torsin1a localization (cells with punctate Torsin1a, in words)” value in assay [2] is listed as “dose-dependent increase”.

With `O=C(/C=C/c1ccccc1)NC(NC(=S)Nc1ccc(Cl)cc1)C(Cl)(Cl)Cl` (stereo not drawn) [Sal-003], in assay [1] (20 μM, vs vehicle-treated slices), the “long-term depression in brain slices of mice heterozygous for DYT1 knockin mutation (delGAG)” value is on record as “restored long-term depression”.
